Columns and labels:
[1] = target: Human immunodeficiency virus type 1 protease (Human immunodeficiency virus 1, UniProt Q72874); assay: Inhibitory activity against purified HIV protease
[2] = test system: Human immunodeficiency virus 1; assay: Anti-HIV activity against MT-4 cells using a cytopathicity assay; assay type: functional, organism-based; conditions: Human immunodeficiency virus 1, MT4
MT4 [3] = assay: Cytotoxicity against MT-4 cells using a cytopathicity assay.; assay type: functional, Homo sapiens
MT4 [4] = assay: Anti-HIV activity was determined against MT-4 cells using a cytopathicity assay; NE means no effect; assay type: functional, cell-based, Homo sapiens

Row | SMILES | IC50 [1] [nM] | EC50 [2] [nM] | CCIC50 (MT4 [3]) [µM] | EC50 (MT4 [4])
1 | COc1cc(C(=O)N[C@@H](Cc2ccccc2)C[C@H](O)[C@H](Cc2ccccc2)NC(=O)OCc2ccccc2)ccc1N | 10.5 | > 8000 | 18 | –
2 | CC(C)(C)OC(=O)N[C@@H](Cc1ccccc1)C[C@H](O)[C@H](Cc1ccccc1)NC(=O)c1cccc(O)c1 | 3.4 | 1600 | 45 | –
3 | O=C(N[C@@H](Cc1ccccc1)C[C@H](O)[C@H](Cc1ccccc1)NC(=O)OCc1ccccc1)OCc1ccccc1 | 5.6 | > 30000 | >100 | –
4 | COc1cc(C(=O)N[C@@H](Cc2ccccc2)[C@@H](O)C[C@H](Cc2ccccc2)NC(=O)OC(C)(C)C)ccc1O | 3.3 | 2800 | 43 | –
5 | CC(C)(C)OC(=O)N[C@@H](Cc1ccccc1)C[C@H](O)[C@H](Cc1ccccc1)NC(=O)c1ccc(O)c(O)c1 | 4.1 | 2900 | 21 | –
6 | COc1cc(C(=O)N[C@@H](Cc2ccccc2)[C@@H](O)C[C@H](Cc2ccccc2)NC(=O)OC(C)(C)C)ccc1N | 7.5 | 3200 | 38 | –
7 | COc1cccc(C(=O)N[C@@H](Cc2ccccc2)[C@@H](O)C[C@H](Cc2ccccc2)NC(=O)OC(C)(C)C)c1 | 23 | > 10000 | 19 | –
8 | Cc1c(N)cccc1C(=O)N[C@@H](Cc1ccccc1)[C@@H](O)C[C@H](Cc1ccccc1)NC(=O)OC(C)(C)C | 2.6 | 1400 | 56 | –
9 | CC(C)(C)OC(=O)N[C@@H](Cc1ccccc1)C[C@H](O)[C@H](Cc1ccccc1)NC(=O)c1ccc(O)c(N)c1 | 7.6 | 5000 | 57 | –
10 | Nc1ccc(C(=O)N[C@@H](Cc2ccccc2)C[C@H](O)[C@H](Cc2ccccc2)NC(=O)OCc2ccccc2)cc1O | 22 | > 10000 | 18 | –
11 | CC(C)(C)OC(=O)N[C@@H](Cc1ccccc1)C[C@H](O)[C@H](Cc1ccccc1)NC(=O)c1ccc(N)c(N)c1 | 9.6 | 7600 | 81 | –
12 | O=C(N[C@@H](Cc1ccccc1)[C@@H](O)C[C@H](Cc1ccccc1)NC(=O)c1ccc(O)cc1Cl)OCc1ccccc1 | 1.3 | 2200 | 18 | –
13 | CC(C)(C)OC(=O)N[C@@H](Cc1ccccc1)C[C@H](O)[C@H](Cc1ccccc1)NC(=O)c1cc(O)cc(O)c1 | 51 | 11000 | 53 | –
14 | O=C(N[C@@H](Cc1ccccc1)[C@@H](O)C[C@H](Cc1ccccc1)NC(=O)c1ccccc1)OCc1ccccc1 | 31 | > 10000 | >100 | –
15 | CC(C)(C)OC(=O)N[C@@H](Cc1ccccc1)C[C@H](O)[C@H](Cc1ccccc1)NC(=O)c1ccc(N)c(O)c1 | 11 | – | 11 | Not Active
16 | CC(C)(C)OC(=O)N[C@@H](Cc1ccccc1)C[C@H](O)[C@H](Cc1ccccc1)NC(=O)c1ccccc1O | 145 | > 75000 | >100 | –
17 | CC(C)(C)OC(=O)N[C@@H](Cc1ccccc1)C[C@H](O)[C@H](Cc1ccccc1)NC(=O)c1ccccc1 | 4.5 | 4300 | 16 | –
18 | CC(C)(C)OC(=O)N[C@@H](Cc1ccccc1)C[C@H](O)[C@H](Cc1ccccc1)NC(=O)c1cc(O)ccc1Cl | 12 | 3700 | 19 | –
19 | Nc1ccc(C(=O)N[C@@H](Cc2ccccc2)C[C@H](O)[C@H](Cc2ccccc2)NC(=O)OCc2ccccc2)c(Cl)c1 | 6.1 | > 10000 | 15 | –
20 | CC(C)(C)OC(=O)N[C@@H](Cc1ccccc1)C[C@H](O)[C@H](Cc1ccccc1)NC(=O)c1c(Cl)cccc1Cl | 67 | > 10000 | 19 | –
21 | CC(C)(C)OC(=O)N[C@@H](Cc1ccccc1)C[C@H](O)[C@H](Cc1ccccc1)NC(=O)c1c(Cl)ccc(N)c1Cl | 31 | – | – | –
22 | CC(C)(C)OC(=O)N[C@@H](Cc1ccccc1)C[C@H](O)[C@H](Cc1ccccc1)NC(=O)c1cccc(N)c1Cl | 5.3 | 3100 | 55 | –
23 | CC(C)(C)OC(=O)N[C@@H](Cc1ccccc1)C[C@H](O)[C@H](Cc1ccccc1)NC(=O)c1cc(N)cc(N)c1 | 250 | – | 92 | Not Active
24 | CC(C)(C)OC(=O)N[C@@H](Cc1ccccc1)C[C@H](O)[C@H](Cc1ccccc1)NC(=O)c1ccc(N)cc1Cl | 3.4 | 2900 | 48 | –
25 | CC(C)(C)OC(=O)N[C@@H](Cc1ccccc1)C[C@H](O)[C@H](Cc1ccccc1)NC(=O)c1ccc(O)cc1 | 3.3 | 4800 | 29 | –
26 | CC(C)(C)OC(=O)N[C@@H](Cc1ccccc1)C[C@H](O)[C@H](Cc1ccccc1)NC(=O)c1cc(N)ccc1Cl | 3.3 | 1800 | >100 | –
27 | CC(C)(C)OC(=O)N[C@@H](Cc1ccccc1)C[C@H](O)[C@H](Cc1ccccc1)NC(=O)c1ccc(O)cc1Cl | 1.4 | 1800 | 23 | –
28 | Cc1c(O)cccc1C(=O)N[C@@H](Cc1ccccc1)[C@@H](O)C[C@H](Cc1ccccc1)NC(=O)OC(C)(C)C | 1.6 | 1200 | 47 | –
29 | CC(C)(C)OC(=O)N[C@@H](Cc1ccccc1)C[C@H](O)[C@H](Cc1ccccc1)NC(=O)OC(C)(C)C | 5.3 | – | – | –
30 | CC(C)c1nc(CN(C)C(=O)N[C@H](C(=O)N[C@@H](Cc2ccccc2)C[C@H](O)[C@H](Cc2ccccc2)NC(=O)OCc2cncs2)C(C)C)cs1 [RITONAVIR] | – | 22 | – | –

Reference: ChEMBL document CHEMBL1128078, “Evaluation of substituted benzamides as P2 ligands for symmetry-based inhibitors of HIV protease” (Bioorg Med Chem Lett, 1995)
